A word on the fraction unbound: it is free concentration divided by total concentration. Higher therefore signals weak binding. What is called IC50 is the point on the concentration scale where inhibition reaches its midpoint.

One data set has as its system PDE7. Description: PET imaging in nonhuman primates (baseline and self-blocking). The data set is classed as in vivo, Cynomolgus monkeys. The settings on record: monkeys, self-blocking, 0.4 or 1 mg/kg.
Data set [1] can be described thus: Pharmacokinetics in plasma and brain (NeuroPK study). The data set is classed as in vivo, Sprague-Dawley rats. As to the method:
Pharmacokinetics in Plasma and Brain (NeuroPK study)
Nine male wildtype Sprague Dawley rats were administered a bolus injection containing compound 27 in saline (1 mg/kg, 2 mL/kg) via the tail vein. Blood samples (approximately 120 µL) were harvested under light isoflurane anesthesia from a set of three rats at 0.08, 0.25, and 1 hr. Blood and brain samples were collected at 5, […] and 60 min. Following centrifugation of blood samples, the resulting plasma supernatant was stored at -70 ± 10 °C till further analysis. Brain samples were homogenized using ice-cold phosphate buffer saline (pH 7.4) and homogenates were stored below -70 ± 10 °C until further analysis. Total homogenate volume was three times the brain weight. Plasma and brain samples were quantified by LC-MS/MS method. The plasma and brain concentration-time data of compound 27 was used for pharmacokinetic analysis. […]

Data set [2] is described as follows: Plasma protein binding (free fraction). Format: in vitro ADME. The settings on record: mouse, rat, and human plasma. How it is done: The general procedure for lipophilicity measurement was previously described, 4 with minor modification in this work. Briefly, the measurement of LogD value was carried out by mixing [11C]27 (radiochemical purity > 99%) with n-octanol (3.0 g) and PBS (0.1 M, 3.0 g) in a test tube. Both n-octanol and PBS were pre-saturated with each other prior to use. The tube was first vortexed for 5 min, followed by centrifugation (~3500-4000 rpm) for an additional 5 min. PBS and n-octanol were aliquoted, weighed and the radioactivity in each component was measured using a Cobra Model 5002/5003 gamma counter. The LogD was determined by Log [ratio of radioactivity in n-octanol and aqueous layer, respectively] (n = […]
For the evaluation of plasma protein binding,5 55.5 MBq radiotracer was added to 150 μL of plasma, which was pre-incubated under 37 °C for 5 min (n = 3). The samples were incubated at 37 °C for 10 min. To each 150 μL of radiotracer-plasma solution was added 300 μL of ice-cold PBS and all samples were briefly vortexed. […] The radioactivity (in Becquerel) was measured in the protein fraction (Aprotein), filtrate, and filter unit using a gamma counter (Wizard, PerkinElmer), Atotal was calculated as the sum of radioactivity, and the free fraction f u was calculated according to the following eq.: f u = 1-

Data set [3] deals with other PDE isozymes (PDE1A/B/C, 2A, 3A/B, 4A/B/C/D, 5A, 8A, 9A, and 10A). Description: Selectivity over other PDE isozymes. The data set is classed as biochemical. The note with it: at 3 μM of compound 27; human recombinant enzymes. How it is done: (§1) protein-ligand complex were saved and were then loaded into Schrödinger Maestro to generate the ligand interaction plot.
(§2) In vitro inhibitory assay to PDE7 of compound 27 and selectivity to other PDEs Functional activity of target compound 27 for inhibition of PDE7A activity and the selectivity over other PDE isozymes (PDE1A/B/C, 2A, 3A/B, 4A/B/C/D, 5A, 8A, 9A, and 10A) were evaluated by Eurofins Panlabs Discovery Services and Reaction Biology Corp., respectively. Human recombinant enzymes were used for the assays. The inhibitory assays were performed and calculated in duplicate at 3 µM. If the inhibition percentage was less than 50%, the assay for half-maximal inhibitory concentration (IC50) value was conducted in […]
(§3) CYP450 isoform metabolism and in vitro safety profiling
(§4) The inhibitory constant of compound 26 toward cytochrome P450-dependent metabolic pathways was determined for individual CYP isoform (CYP1A2, CYP2C9, CYP2C19, CYP2D6, and CYP3A4). Reference inhibitors were included as positive controls. A 10 µM solution of compound 27 was used for initial screening. If the inhibition percentage was less than 50%, the experiment was stopped. If the inhibition potency was greater than 50%, the gradient concentrations of compound 27 were used for IC 50 determination. The P450 reactions were detected at Ext/Em: 405 nm/460 nm (530 nm/605 nm for CYP2C9) in a […]

The target in the next data set is T1, PDE7A (Homo sapiens, UniProt Q13946).
T1 construct: purchased Eurofins Panlabs Discovery Services (contract assay)
Description: In vitro inhibitory assay of PDE7A activity. Format: biochemical. The settings on record: human recombinant enzyme; read-out: inhibitory constant (IC50) toward PDE7A. As to the method: as §1, §2, §3, §4

The mark [4] stands for this setting: 5 min, single iv 1 mg/kg, male Sprague-Dawley rats, n = 3, 1 mg/kg.

Where two headings read alike, the source gives them in different places. Where only a bound is given, the exact number is not on record here.

T1 sequence (Q13946 whole entry): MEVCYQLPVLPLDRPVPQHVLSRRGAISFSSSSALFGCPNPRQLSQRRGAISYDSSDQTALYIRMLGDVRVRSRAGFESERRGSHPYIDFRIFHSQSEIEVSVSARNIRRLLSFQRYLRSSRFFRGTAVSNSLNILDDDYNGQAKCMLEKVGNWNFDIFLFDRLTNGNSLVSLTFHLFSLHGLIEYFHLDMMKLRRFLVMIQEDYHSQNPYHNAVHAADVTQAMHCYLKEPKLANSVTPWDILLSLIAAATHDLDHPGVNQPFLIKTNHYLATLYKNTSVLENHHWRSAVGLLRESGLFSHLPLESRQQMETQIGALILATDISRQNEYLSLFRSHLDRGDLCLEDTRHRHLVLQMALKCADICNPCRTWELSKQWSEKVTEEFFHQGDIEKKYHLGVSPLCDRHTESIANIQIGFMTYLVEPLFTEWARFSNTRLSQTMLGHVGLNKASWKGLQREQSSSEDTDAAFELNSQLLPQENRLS

On to `COc1ccc(Cl)c2c1C1(CCCCC1)NC(=O)N2` [Compound 27], for which the “effect of pretreatment on [11C]27 uptake in all assessed brain regions” value in the data set on PDE7 is reported as “moderately reduced”. This compound returned a brain concentration mean in data set [1] (setting [4]) of 3316.17 ng/g. The plasma concentration mean in data set [1] (setting [4]) came to 712.49 ng/mL; in data set [1] (60 min, single iv 1 mg/kg, male Sprague-Dawley rats, n = 3, 1 mg/kg), 39.39 ng/mL. Also, the “brain-to-plasma ratios (Kp)” value in data set [1] (all measured time points (5-60 min), SD rats, 1 mg/kg iv, 1 mg/kg) is on record as > 3. Moreover, the “fraction of the compound remaining in the brain” value in data set [1] (last measured time point (60 min), relative to 5 min peak, rats) is listed as “less than 5%”. In addition, the Kp at 5 min in data set [1] (male, Sprague-Dawley, rat, brain, iv, 1 mg/kg, 5 min, single iv 1 mg/kg, male Sprague-Dawley rats, n = 3, read-out: Kp (brain-to-plasma ratio) mean) is 4.76. The Kp at 25 min in data set [1] (male, Sprague-Dawley, rat, brain, iv, 1 mg/kg, 25 min, single iv 1 mg/kg, male Sprague-Dawley rats, n = 3, read-out: Kp (brain-to-plasma ratio) mean) was 4. Moreover, in data set [1] (male, Sprague-Dawley, rat, brain, iv, 1 mg/kg, 60 min, single iv 1 mg/kg, male Sprague-Dawley rats, n = 3, read-out: Kp (brain-to-plasma ratio) mean), the Kp at 1 h is 3.35. Further, the Kp in data set [1] (male, Sprague-Dawley, rat, brain, iv, 1 mg/kg, all measured time points (5-60 min), SD rats, 1 mg/kg iv, read-out: brain-to-plasma ratios (Kp)) was 3 to 5. Further, the concentration at 5 min in data set [1] (rat, brain, 5 min, single iv 1 mg/kg, male Sprague-Dawley rats, n = 3, read-out: brain concentration mean) came to 3320 ± 378 ng/g; in data set [1] (rat, plasma, 5 min, single iv 1 mg/kg, male Sprague-Dawley rats, n = 3, read-out: plasma concentration mean) it was 712 ± 153 ng/mL. The concentration at 25 min in data set [1] (rat, brain, 25 min, single iv 1 mg/kg, male Sprague-Dawley rats, n = 3, read-out: brain concentration mean) was found to be 876 ng/g; in data set [1] (rat, plasma, 25 min, single iv 1 mg/kg, male Sprague-Dawley rats, n = 3, read-out: plasma concentration mean), 229 ng/mL. In addition, the concentration at 60 min worked out at 132 ng/g in data set [1] (rat, brain, 60 min, single iv 1 mg/kg, male Sprague-Dawley rats, n = 3, read-out: brain concentration mean) and 39.4 ± 4.44 ng/mL in data set [1] (rat, plasma, 60 min, single iv 1 mg/kg, male Sprague-Dawley rats, n = 3, read-out: plasma concentration mean). In addition, in data set [2], the fraction unbound at 10 min is ≥ 0.01. In addition, the “% inhibition of other PDE isomers” value in data set [3] is given as < 50%. Besides, on PDE7A, the IC50 amounted to 31 nM.
